Measurements published in patent US9139551B2, “Preparation of a new class of water-soluble ammonium 2,3-dihydroxy-5-((2R,3R)-3,5,7-trihydroxy-4-oxochroman-2-yl) phenolates and their biological activity of alcohol elimination” (priority 2014, dated 2015).

What was measured:
Balb/C mice [1] = experiment: Climbing net test; type: in vivo; settings: 2 mg/kg gavage 30 min before alcohol
Procedure: Climbing Net Test • Groups design and treatment before experiment are as the same as that in deintoxication test. […] 30 minutes later all mice administrated alcohol (liquid Erguotou, ethonol concentration was diluted to 30%) 0.2 mL/kg BW and placed on a vertical metal net and measured the time when mice climbed on net.

Balb/C mice [2] = experiment: Anti-alcoholism test (agent 30 min after alcohol); type: in vivo; settings: 2 mg/kg gavage 30 min after 30% ethanol
From the text: Anti-Alcoholism Tests • Groups design and treatment before experiment are as the same as that in Deintoxication test. […]

Balb/C mice [3] = experiment: Plasma EtOH concentration assay; type: in vivo; settings: intragastric 2 mg/kg
Procedure: Plasma EtOH Concentration Assay. • Blood samples from the tail vein of mice at different time points (0, 15, 30, 45, 60, 90, 120, 240, 480 and 720 minutes) after EtOH (30% ethanol, 0.2 ml/kg bw) or TDHM (2 mg/kg bw), PDHM (2 mg/kg bw) or DHM (2 mg/kg bw) gavage were collected for plasma EtOH concentrations (plasma [EtOH]) assays. (“BW” or “bw”: body weight) • Briefly, the Balb/C mice were put into a restraint tube and the tail was warmed at 37° C. The tail vein at the tip of the tail was punched with a sharp blade. Approximately 0.2 ml venous blood was dropped to a capillary blood collection tube containing lithium heparin (Ram Scientific). Blood samples were centrifuged at 2500 rpm for 20 min. The supernatant was collected and stored at −80° C. until assay. The EtOH content of each blood sample was measured in duplicate along with EtOH standards using the alcohol oxidase reaction procedures (EnzyChrom™ Ethanol Acid Assay Kit, ECET-100) (Liang et al., 2007). The sample preparations were the same as described above.

Balb/C mice [4] = experiment: Deintoxication test (agent 30 min before alcohol); settings: 2 mg/kg gavage 30 min before 30% ethanol

For `O=C1c2c(O)cc(O)cc2O[C@H](c2cc(O)c(O)c(O)c2)[C@H]1O` [DHM, dihydromyricetin, reference compound], the “climbing time vs normal control mice” value (Balb/C mice [1]) was “significantly prolonged”, the climbing (Balb/C mice [1]; vertical metal net) was 329.75 ± 76.46 min and the “Sleep time M ± SD” value (Balb/C mice [2]) was 138.17 ± 33.73 min. The “Tolerance time M ± SD” value (Balb/C mice [2]) was 18.29 ± 10.07 min, the Rate of drunk (Balb/C mice [2]; 20 mice) was 0% and the “blood alcohol concentration vs control group treated with saline” value (Balb/C mice [3]) was “significantly decreased”. For the same compound, the “Sleep time M ± SD” value (Balb/C mice [4]) was 135.71 ± 25.25 min, the “Tolerance time M ± SD” value (Balb/C mice [4]) was 25 ± 7.29 min and the Dead number (Balb/C mice [4]; 20 mice) was 2 piece. The Rate of drunk (Balb/C mice [4]; 20 mice) was 10% and the solubility (Solubility in water) was at most 0.264 mg/mL.
